From patent publication US20060246115A1, “Nutritional products for ameliorating symptoms of rheumatoid arthritis” (priority 2005, published 2006) come the findings set out here.

For experiment [1], the system named is type II collagen-immunized mice (collagen-induced arthritis). In words: Experiment 1: collagen-induced arthritis (CIA) in mice, clinical assessment. Type of experiment: in vivo. To be noted: prednisolone 5 mg/kg i.p. daily. The method, then: Tests are conducted under a model of rheumatoid arthritis in mice (collagen-induced arthritis or CIA) that shares some similarities with the human disease. The tests evaluate the effect of plant extracts and Oxepa®, on the severity of CIA and concentration of inflammatory mediators.
Seven week-old DBA/1J (H-2^q) male mice (n=105) are purchased from Harlan (Barcelona, Spain) and housed in plastic cages (5 animals each) with free access to food and water.
The procedure followed for the animal immunization is carried out by injecting 100 μl of bovine collagen II emulsion (type II collagen in complete Freund's adjuvant) intradermically in the base of the tail. Collagen is supplied by Chondrex (MDbiosciences, Switzerland) and the emulsion is prepared as follows: collagen is dissolved in 0.05M acetic acid (2 mg/ml) overnight at 4° C. with constant, but gentle stirring and emulsified with Freund's adjuvant (1:1). The Freund's adjuvant is added drop by drop while mixing in a high-speed homogenisator (ultraturrax) at 27,000 rpm. […]
Mice are assessed daily for clinical symptoms of inflammation, and their weights are measured. […]
For the statistical analysis, outliers are removed if they differed from the mean more than three standard deviations. Homogeneity of variances is analysed by Levene's test. […] The classification of arthritic index into categories is analysed by Chi-squared.

For experiment [2], the system named is antibodies against type II collagen (IgG2a). Kind of experiment: Experiment 1: anti-CII IgG2a ELISA in serum and joint homogenates. Type of experiment: in vivo, mice. The method, then: Blood samples are taken from the retroorbital sinus under light anesthesia and the animals are immediately sacrificed by cervical dislocation. Fore and hind limbs are dissected and frozen at −80° C. Blood samples are allowed to cloth for 1 hour at room temperature and the serum is separated from blood cells by centrifugation at 6,500 g for 10 min.
(§1) The following parameters are measured in joint homogenates: antibodies against type II collagen (IgG2a); proinflammatory cytokines: IL-1β and IL-6; counter-regulatory cytokines: IL-10; and Matrix metalloproteinases: MMP-9. Antibodies against type II collagen (IgG2a) are also measured in serum.
Specific anti-CII—IgG2a in joints and serum of mice is determined by ELISA. Briefly, 96-well microtiter plates are coated overnight with CII at 4° C., washed with 0.05% Tween-PBS, blocked with 1% bovine serum albumin-PBS for 2 h at room temperature and then washed again. Samples are diluted with PBS before assay: 1:16000 for serum and 1:50 for homogenized joints. Fifty (50) μL of standards (type II collagen Ab-2, clone 2B1.5, NeoMarkers) from 0 to 500 ng/ml and samples are added to each well in duplicate, and incubated 2 h at 37° C. […] Finally the absorbance is measured in a microplate reader at 405 nm.
Background: An ELISA detects its analyte on a solid surface through an enzyme-linked reagent.

The subject of another experiment is IL-1β. Kind of experiment: Experiment 1: IL-1β ELISA in joint homogenates. In kind it is in vivo, mice. How it is done:
as §1
Cytokines and MMP-9 in homogenized joints are measured by ELISA using commercial kits from BIOTRAK (Amersham Pharmacia Biotech) following the supplier instructions and using joint homogenates without any further dilution.

The test system of another experiment is IL-6. Kind of experiment: Experiment 1: IL-6 ELISA in joint homogenates. Type of experiment: in vivo, mice. The method, then: (§2) The following parameters are measured in joint homogenates: antibodies against type II collagen (IgG2a); proinflammatory cytokines: IL-1β and IL-6; counter-regulatory cytokines: IL-10; and Matrix metalloproteinases: MMP-9. Antibodies against type II collagen (IgG2a) are also measured in serum. Cytokines and MMP-9 in homogenized joints are measured by ELISA using commercial kits from BIOTRAK (Amersham Pharmacia Biotech) following the supplier instructions and using joint homogenates without any further dilution.

Another experiment has as its system MMP-9. Kind of experiment: Experiment 1: MMP-9 ELISA in joint homogenates. In kind it is in vivo, mice. The method, then:
as §2

Experiment [3] has as its system type II collagen-immunized mice (collagen-induced arthritis). Kind of experiment: Experiment 3: CIA in mice, arthritis index, onset and incidence. Type of experiment: in vivo. To be noted: prednisolone i.p. daily.
The subject of experiment [4] is histological structure of cartilage and bone of arthritic joints. Kind of experiment: Experiment 3: histological scoring of joints of CIA mice (H&E). Type of experiment: in vivo. The text has this: Experiment 1 is repeated and the test animals evaluated for various histological changes associated with each control or treatment group. The purpose of this experiment is to show the effect of Boswellia serrata and Phlebodium decumanum extracts and Oxepa® on the histological structure of cartilage and bone in the same experimental model as described above. After again completing the above-described model, the mice are sacrificed 10 days after the arthritis onset by cervical dislocation under light anesthesia. Fore and hind limbs are dissected and the skin removed. Each is then immersed in 4% buffered formaldehyde for 2-3 days. Afterwards, each is treated with decalcificant solution for 2 hours and treated again for 60-90 minutes more. The samples are dehydrated with alcohol solutions of increasing concentrations, embedded in paraffin, cut into 4 μm slices and stain with hematoxilin and eosin (H&E). The following joints are thereafter studied: elbow, radio-cubito-carpo (wrist), carpo-metacarpo and metacarpo-phalange in fore limbs, and knee, tibio-tarso (ankle), tarso-metatarso, metatarso-phalange in hind limbs. Typical alterations of arthritic joints are considered, such as synovial inflammation, pannus formation, cartilage damage and bone destruction, and are scored on a nominal scale from 0 to 3. The scale is defined for each parameter as follows: Synovial inflammation: 0=Absence: normal synovial-periarticular tissue; 1=mild: infiltration of inflammatory cells in the periarticular tissue; 2=moderated: cell infiltration and moderated edema; 3=severe: marked cell infiltration and edema. Pannus formation: None (0), mild (1), moderate (2) or severe (3) proliferation of synovial tissue at the synovium-cartilage junction. Cartilage damage: 0=Absence: normal cartilage; 1=mild: damage of Zone I (external) with slight loss of chondrocytes and/or collagen disruption; 2=moderated: damage of Zone II (internal) with moderate loss of chondrocytes and/or collagen disruption: 3=severe: severe damage of all Zones with multifocal losses of chondrocytes and/or collagen disruption. Subchondral bone destruction: 0=Absence: normal bone; 1=mild: some areas of cortical degradation, few osteoclasts; 2=moderated: clear bone degradation with moderate medular damage, more osteoclasts; 3=severe: intense cortical and medular bone destruction, numerous osteoclasts. The scores of all joints are summed to obtain a general score for each histological parameter and animal. The histopathologist is not aware of the study groups during the evaluation of the samples. Homogeneity of variances are tested by the Bartelett's test. If homogeneity of variances is met, data are analysed by one-way ANOVA. If variances are not homogeneous, non-parametric procedures are used. The analysis is done by the Graph Pad Prism Software version 4.

[5] abbreviates: individual mice, sum of scores (0-3) of all joints.

As for `C[C@]12C=CC(=O)C=C1CC[C@@H]1[C@@H]2[C@@H](O)C[C@@]2(C)[C@H]1CC[C@]2(O)C(=O)CO` [prednisolone], in experiment [1], the development of arthritis result is given as “do not develop arthritis”. Further, in experiment [2] (joint homogenates), the “IgG2a levels in joint homogenates versus control” value was “significantly lower”. For the same molecule, in experiment [2] (serum), the “IgG2a levels in serum versus control” value is “significantly lower”. For the same molecule, the “content of IL-1β in joint homogenates versus control” value in the experiment with IL-1β is recorded as “lower”. For the same molecule, the “content of IL-6 in joint homogenates versus control” value with IL-6 is listed as “lower”. Also, in the experiment on MMP-9, the “content of MMP-9 in joint homogenates versus control” value is recorded as “lower”. For the same molecule, the development of arthritis result in experiment [3] was “do not develop arthritis”. Also, in experiment [4] (setting [5]), the Bone score worked out at 0, the Cartilage score came out at 0, the Inflammation score is 0 and the Pannus score was determined as 0. Moreover, the “joint appearance, histological slide” value in experiment [4] (knee, left hind limb, H&E, FIG. 9) is “normal joint”.
